# Results reported in US5081584A, “Computer-assisted design of anti-peptides based on the amino acid sequence of a target peptide” (United States of America, priority 1989, dated 1992).
# Ends that are not written are not given here.
# Key:
# [1] = molecular target: target 13-mer (GP-1), amino terminus of a membrane glycoprotein; assay: HPLAC zonal elution on column with immobilized target 13-mer (GP-1); format: binding, rat; settings: for binding constants (in words): text summary of Table 4; for Km: zonal elution, immobilized GP-1, 100 mM NH4OAc pH 5.7, flow rate 1.0 ml/min, extrapolated to [P]=0, read-out: Equilibrium binding constant (dissociation constant) KM/P
# Description: (§1) The recognition of the target peptide by the anti-sense peptides was evaluated by high performance affinity chroma tography (I. Chaiken, Ed., "Analytical Affinity Chromatography," CRC Press, Boca Raton, 1987). This system was chosen because it allows direct measurement of molecular interactions and it is not limited by either molecular size or by the need for a specialized detection system. The target 13-mer (GP-1) was immobilized on an affinity support system. The binding properties to the target peptide were evaluated by zonal elution methods (FIG. III) (Y. Shai et al, Biochem., 26:669 (1987)). The anti-sense recognition peptides were eluted on the sense column and the retardation volume of the peptide (V) was compared to the column void volume (Vo). Equilibrium binding constants were determined by loading varying amounts of the anti-sense peptides on the column and employing the equation: [formula] where KM/P represents the dissociation constant for the binding process,
# MT is the amount of target peptide immobilized and
# [P]represents the amount of recognition peptide eluted E. Swaisgood et al, Biochem., 25:4148 (1986)).
# The KM/P values are obtained subsequent to extrapolation to [P]=0.
# Values were obtained by zonal elution on a column with immobilized target
# peptide (GP1) equilibrated with 100 mM NH4 OAc, pH = 5.7 with column
# flow rate of 1.0 ml/min.
# [2] = molecular target: putative ATP binding region of the raf (raf 357-376) (Rattus norvegicus, UniProt P11345); assay: HPLAC on immobilized raf ATP binding region
# Description: The values of the dissociation constants (KM/P) are obtained in 0.1 M NH4 CH3 COO pH 5.7.
# as §1, with “The anti-sense recognition peptides were eluted on the sense column and the retardation volume of the peptide (V) was compared to the column void volume (Vo).” left out
# In order to evaluate the general applicability of the complementary scoring program, a comparison was made between the DNA derived anti-sense peptide and a computer generated recognition-peptide. […] To compare the relative affinities of the DNA derived anti-sense peptide (FAR-[…]) and the computer generated recognition peptide (FARCG--[…]), the raf ATP binding region ([…]) was immobilized on an affinity support and the two anti-sense peptides evaluated by HPLAC techniques.
"Km ([2]; immobilized raf ATP binding region GSGSFGTVYKGKWHGDVAVK, 0.1 M NH4CH3COO pH 5.7, read-out: Equilibrium binding constant KM/P)",fold higher affinity for the target peptide compared to the DNA derived anti-sense peptide ([2]; relative to FAR),Sequence,binding constants (in words) [1],Km [1]
–,–,"AAQHGGGLGVQVE [CODON-1, AAQHGGGLGVQVE]",millimolar range,920 µM
–,–,AAQHGRGFGIQIE [CODON-2],millimolar range,460 µM
8 µM,~50 fold,FHGHISMPFAFVYSSKAAAA [FAR-CG],–,–
